Source: patent publication US20120121591A1 (priority 2009, published 2012)

Legend:
Assay type in all cases: cell-based
hKv1.3 = hKv1.3 (Homo sapiens, UniProt P22001); test: cell-based; conditions: Kv1.3 (IWQ) IC50 (nM, Avg)
[1] = test system: IL-2 secretion from T cells in human whole blood; conditions: read-out: WB (IL-2) IC50 (nM, Avg)
[2] = test system: IFN-g secretion from T cells in human whole blood; conditions: read-out: WB (IFNg) IC50 (nM, Avg)

Chain of hKv1.3 (P22001 whole entry): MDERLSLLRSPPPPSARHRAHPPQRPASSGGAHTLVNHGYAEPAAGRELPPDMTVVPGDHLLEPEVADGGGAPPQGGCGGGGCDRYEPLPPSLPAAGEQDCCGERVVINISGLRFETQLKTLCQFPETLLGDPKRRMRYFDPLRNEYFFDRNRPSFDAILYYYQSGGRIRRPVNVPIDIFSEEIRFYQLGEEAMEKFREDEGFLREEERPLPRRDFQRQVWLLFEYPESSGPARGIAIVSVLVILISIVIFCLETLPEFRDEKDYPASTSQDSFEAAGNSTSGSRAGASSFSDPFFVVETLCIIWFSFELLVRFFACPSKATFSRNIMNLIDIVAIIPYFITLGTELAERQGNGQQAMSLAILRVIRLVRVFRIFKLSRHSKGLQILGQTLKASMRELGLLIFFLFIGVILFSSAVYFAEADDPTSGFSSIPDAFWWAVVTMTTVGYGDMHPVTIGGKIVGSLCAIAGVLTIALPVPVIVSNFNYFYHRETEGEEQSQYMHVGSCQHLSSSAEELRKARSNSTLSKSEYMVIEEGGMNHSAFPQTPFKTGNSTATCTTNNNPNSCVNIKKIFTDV

| SMILES | IC50 (hKv1.3) | IC50 [1] | IC50 [2] |
| --- | --- | --- | --- |
| CC[C@H](C)[C@@H]1NC(=O)[C@@H](NC(=O)[C@H](CO)NC(=O)[C@@H](N)CCCCN)CSSC[C@@H](C(=O)O)NC(=O)[C@H]([C@@H](C)O)NC(=O)CNC(=O)[C@@H]2CSSC[C@@H]3NC(=O)[C@H](CCC(N)=O)NC(=O)[C@H](Cc4ccccc4)NC(=O)[C@H](C)NC(=O)[C@H]([C@@H](C)O)NC(=O)[C@H](CSSC[C@H](NC(=O)[C@H](Cc4ccccc4)NC(=O)[C@H](CO)NC(=O)[C@H](CC(C)C)NC(=O)[C@H](CCCNC(=N)N)NC(=O)[C@H](Cc4ccc(O)cc4)NC(=O)[C@H](CCCCN)NC(=O)[C@H](CCSC)NC(=O)[C@H](CO)NC(=O)[C@H](Cc4c[nH]cn4)NC(=O)[C@H](CCCCN)NC3=O)C(=O)N[C@@H](CCCNC(=N)N)C(=O)N[C@@H](CCCCN)C(=O)N[C@@H]([C@@H](C)O)C(=O)N2)NC(=O)[C@H](CCCNC(=N)N)NC(=O)[C@H](CO)NC(=O)[C@H](CCCCN)NC(=O)[C@@H]2CCCN2C(=O)[C@H]([C@@H](C)CC)NC(=O)[C@H]([C@@H](C)O)NC(=O)[C@H](CC(=O)O)NC1=O [[Lys1]ShK] | 0.158 nM | 0.035 nM | 0.073 nM |
| CCCC[C@@H]1NC(=O)[C@H](CO)NC(=O)[C@H](Cc2c[nH]cn2)NC(=O)[C@H](CCC(=O)O)NC(=O)[C@@H]2CSSC[C@@H]3NC(=O)[C@H]([C@@H](C)O)NC(=O)[C@H](CCCCN)NC(=O)[C@H](CCCNC(=N)N)NC(=O)[C@H](CSSC[C@H](NC(=O)[C@H](CCCNC(=N)N)NC(=O)[C@H](CO)NC(=O)[C@H](CCCCN)NC(=O)[C@@H]4CCCN4C(=O)[C@H]([C@@H](C)CC)NC(=O)[C@H]([C@@H](C)O)NC(=O)[C@H](CC(=O)O)NC(=O)[C@H](CCC(=O)O)NC(=O)[C@@H](NC(=O)[C@H](CO)NC(=O)[C@@H](N)CCCNC(=N)N)CSSC[C@@H](C(N)=O)NC(=O)[C@H]([C@@H](C)O)NC(=O)CNC3=O)C(=O)N[C@@H]([C@@H](C)O)C(=O)N[C@@H](C)C(=O)N[C@@H](C)C(=O)N[C@@H](CCCCN)C(=O)N2)NC(=O)[C@H](Cc2ccccc2)NC(=O)[C@H](CO)NC(=O)[C@H](CC(C)C)NC(=O)[C@H](CCCNC(=N)N)NC(=O)[C@H](Cc2ccc(O)cc2)NC(=O)[C@H](CCCCN)NC1=O [[Glu4,18,A1a15,Lys16,Nle21]ShK-amide] | 0.346 nM | 1.22 nM | 1.6 nM |
| CC[C@H](C)[C@@H]1NC(=O)[C@H](CO)NC(=O)[C@H](Cc2c[nH]cn2)NC(=O)[C@H](CCCCN)NC(=O)[C@@H]2CSSC[C@@H]3NC(=O)[C@H]([C@@H](C)O)NC(=O)[C@H](CCCCN)NC(=O)[C@H](CCCNC(=N)N)NC(=O)[C@H](CSSC[C@H](NC(=O)[C@H](CCCNC(=N)N)NC(=O)[C@H](CO)NC(=O)[C@H](CCCCN)NC(=O)[C@@H]4CCCN4C(=O)[C@H]([C@@H](C)CC)NC(=O)[C@H]([C@@H](C)O)NC(=O)[C@H](CC(=O)O)NC(=O)[C@H]([C@@H](C)CC)NC(=O)[C@@H](NC(=O)[C@H](CO)NC(=O)[C@@H](N)CCCNC(=N)N)CSSC[C@@H](C(N)=O)NC(=O)[C@H]([C@@H](C)O)NC(=O)CNC3=O)C(=O)N[C@@H]([C@@H](C)O)C(=O)N[C@@H](C)C(=O)N[C@@H](Cc3ccccc3)C(=O)N[C@@H](CCCCN)C(=O)N2)NC(=O)[C@H](Cc2ccccc2)NC(=O)[C@H](CO)NC(=O)[C@H](CC(C)C)NC(=O)[C@H](CCCNC(=N)N)NC(=O)[C@H](Cc2ccc(O)cc2)NC(=O)[C@H](CCCCN)NC1=O [[Lys16, Ile21]ShK-amide] | 0.14 nM | 2.49 nM | 5.77 nM |
| CC[C@H](C)[C@@H]1NC(=O)[C@@H](NC(=O)[C@H](CO)NC(=O)[C@@H](N)CCCNC(=N)N)CSSC[C@@H](C(=O)O)NC(=O)[C@H]([C@@H](C)O)NC(=O)CNC(=O)[C@@H]2CSSC[C@@H]3NC(=O)[C@H](CCC(N)=O)NC(=O)[C@H](Cc4ccccc4)NC(=O)[C@H](C)NC(=O)[C@H]([C@@H](C)O)NC(=O)[C@H](CSSC[C@H](NC(=O)[C@H](C)NC(=O)[C@H](CO)NC(=O)[C@H](CC(C)C)NC(=O)[C@H](CCCNC(=N)N)NC(=O)[C@H](Cc4ccc(O)cc4)NC(=O)[C@H](CCCCN)NC(=O)[C@H](CCSC)NC(=O)[C@H](CO)NC(=O)[C@H](Cc4c[nH]cn4)NC(=O)[C@H](CCCCN)NC3=O)C(=O)N[C@@H](CCCNC(=N)N)C(=O)N[C@@H](CCCCN)C(=O)N[C@@H]([C@@H](C)O)C(=O)N2)NC(=O)[C@H](CCCNC(=N)N)NC(=O)[C@H](CO)NC(=O)[C@H](CCCCN)NC(=O)[C@@H]2CCCN2C(=O)[C@H]([C@@H](C)CC)NC(=O)[C@H]([C@@H](C)O)NC(=O)[C@H](CC(=O)O)NC1=O [[Ala27]ShK] | 0.207 nM | 1.57 nM | 8.78 nM |
| CC[C@H](C)[C@@H]1NC(=O)[C@H]([C@@H](C)O)NC(=O)[C@H](CC(=O)O)NC(=O)[C@H](Cc2cccc3ccccc23)NC(=O)[C@@H](NC(=O)[C@H](CO)NC(=O)[C@@H](N)CCCNC(=N)N)CSSC[C@@H](C(=O)O)NC(=O)[C@H]([C@@H](C)O)NC(=O)CNC(=O)[C@@H]2CSSC[C@@H]3NC(=O)[C@H](CCC(N)=O)NC(=O)[C@H](Cc4ccccc4)NC(=O)[C@H](C)NC(=O)[C@H]([C@@H](C)O)NC(=O)[C@H](CSSC[C@H](NC(=O)[C@H](Cc4ccccc4)NC(=O)[C@H](CO)NC(=O)[C@H](CC(C)C)NC(=O)[C@H](CCCNC(=N)N)NC(=O)[C@H](Cc4ccc(O)cc4)NC(=O)[C@H](CCCCN)NC(=O)[C@H](CCSC)NC(=O)[C@H](CO)NC(=O)[C@H](Cc4c[nH]cn4)NC(=O)[C@H](CCCCN)NC3=O)C(=O)N[C@@H](CCCNC(=N)N)C(=O)N[C@@H](CCCCN)C(=O)N[C@@H]([C@@H](C)O)C(=O)N2)NC(=O)[C@H](CCCNC(=N)N)NC(=O)[C@H](CO)NC(=O)[C@H](CCCCN)NC(=O)[C@@H]2CCCN2C1=O [[1-Nal4]ShK] | 0.15 nM | 0.274 nM | 0.317 nM |
| CC[C@H](C)[C@@H]1NC(=O)[C@@H](NC(=O)[C@H](CO)NC(=O)[C@@H](N)CCCNC(=N)N)CSSC[C@@H](C(=O)O)NC(=O)[C@H]([C@@H](C)O)NC(=O)CNC(=O)[C@@H]2CSSC[C@@H]3NC(=O)[C@H](CCC(N)=O)NC(=O)[C@H](Cc4ccccc4)NC(=O)[C@H](C)NC(=O)[C@H]([C@@H](C)O)NC(=O)[C@H](CSSC[C@H](NC(=O)[C@H](Cc4ccccc4)NC(=O)[C@H](CO)NC(=O)[C@H](CC(C)C)NC(=O)[C@H](CCCNC(=N)N)NC(=O)[C@H](Cc4ccc(O)cc4)NC(=O)[C@H](CCCCN)NC(=O)[C@H](CCSC)NC(=O)[C@H](CO)NC(=O)[C@H](CCCCN)NC(=O)[C@H](CCCCN)NC3=O)C(=O)N[C@@H](CCCNC(=N)N)C(=O)N[C@@H](CCCCN)C(=O)N[C@@H]([C@@H](C)O)C(=O)N2)NC(=O)[C@H](CCCNC(=N)N)NC(=O)[C@H](CO)NC(=O)[C@H](CCCCN)NC(=O)[C@@H]2CCCN2C(=O)[C@H]([C@@H](C)CC)NC(=O)[C@H]([C@@H](C)O)NC(=O)[C@H](CC(=O)O)NC1=O [[Lys19]ShK] | 0.189 nM | 0.041 nM | 0.089 nM |
